Test results published in patent US20040137500A1, “Novel polypeptide” (Pfizer Inc, priority 2000, published 2004).

Tested on: PFI-020
Assay: FLIPR cell-based assay for agonist activation of PFI-020
Set-up: species or system human
Conditions: 10 μM; PFI-020-transfected 293 cells (HEK 293 expressing mouse Gα15); Fluo3 FLIPR
Method: Fluorescence Imaging Plate Reader (FLIPR®) technology was employed as a means to detect activation of PFI-020 by agonists in a cell-based assay.
5×10^6 Human Embryonic Kidney (HEK) 293 cells expressing the mouse Gα15 gene (from here on called '293 cells′), were transiently transfected with 7.5 μg of PFI-020 (contained within the pcDNA4HIS-max-TOPO (Invitrogen) plasmid) vector, or vector alone, using Lipofectamine Plus® reagent (Gibco BRL) as per the manufacturer's protocol. The plasmid pcDNA4HIS-max-TOPO was used as it contains elements that up-regulate the level of gene transcription over standard pcDNA3.1 vectors. 24 hrs post-transfection, the cells were detached from the flask using Trypsin/EDTA solution (LTI) and seeded into a black sided, poly-D-lysine-treated, 96-well plate (Becton Dickinson) at 5×10^4 cells/well density. […] The FLIPR® processing involved reading the fluorescence for all samples for 2 minutes; during this time the fluorescence baseline was determined for the first 10 seconds. The desired amount of compound was then automatically transferred to the wells and the fluorescence was continuously monitored for the remainder of the time. […]
FIGS. 3, 4, 5 and 6 depict the action of various purinoceptor compounds at a concentration of 10 μM on PFI-020-transfected 293 cells, showing fluorescence intensity versus time (in seconds). […]

Compound	activation of PFI-020 (fluorescence intensity versus time)
Nc1nc(Cl)nc2c1ncn2[C@@H]1O[C@H](COP(=O)([O-])OP(=O)([O-])OP(=O)([O-])[O-])[C@@H](O)[C@H]1O.[Na+].[Na+].[Na+].[Na+] [2-chloro-ATP, 2-chloroadenosine triphosphate tetrasodium]	activated
O=c1ccn([C@@H]2O[C@H](COP(=O)(O)OP(=O)(O)OP(=O)(O)O)[C@@H](O)[C@H]2O)c(=O)[nH]1 [UTP, Uridine triphosphate]	activated
